US10414775B2 (Merck Sharp & Dohme Corp., priority 2016, dated 2019)
Counter-ions that a name gives are not always drawn.

Molecular target: T1, Human CYP8B1 (Homo sapiens, UniProt Q9UNU6)
T1 construct: tissue Xenotech; host or cells: human liver microsomes
T1 sequence (Q9UNU6 1-501): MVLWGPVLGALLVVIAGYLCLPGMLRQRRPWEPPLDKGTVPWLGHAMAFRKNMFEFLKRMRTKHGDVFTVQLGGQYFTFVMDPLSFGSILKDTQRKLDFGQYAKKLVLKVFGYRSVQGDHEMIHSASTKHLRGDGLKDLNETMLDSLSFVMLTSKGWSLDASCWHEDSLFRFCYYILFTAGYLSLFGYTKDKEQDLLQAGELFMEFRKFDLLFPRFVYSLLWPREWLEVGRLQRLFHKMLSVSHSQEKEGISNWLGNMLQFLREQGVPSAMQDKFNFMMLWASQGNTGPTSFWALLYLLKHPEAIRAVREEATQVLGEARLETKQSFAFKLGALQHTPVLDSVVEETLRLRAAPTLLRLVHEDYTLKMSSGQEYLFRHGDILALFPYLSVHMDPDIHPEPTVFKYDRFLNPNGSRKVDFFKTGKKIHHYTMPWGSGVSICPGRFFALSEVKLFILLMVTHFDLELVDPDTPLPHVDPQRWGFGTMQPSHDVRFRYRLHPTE
Assay: Human Cyp8B1 Liver Microsome Assay
Type: biochemical
Conditions: human liver microsomes; substrate 7α-hydroxy-4-cholesten-3-one, NADPH; 30 min pre-incubation, 45 min reaction; RapidFire MS readout
Method in brief: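 Human liver microsomes (65 μg/ml, 0.1 M phosphate pH 7.4) preincubated 30 min at room temperature with inhibitor (1.25% DMSO final), then reacted 45 min with 7α-hydroxy-4-cholesten-3-one and NADPH. 7α,12α-dihydroxy product quantified by RapidFire ESI+ MRM against d7 internal standard; IC50 from four-parameter logistic fit.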

| SMILES | IC50 [nM] |
| --- | --- |
| C[C@@H]1CN(c2ccnc3cc(Cl)cnc23)CC[C@@H]1C(=O)N1CCn2c(nnc2C(F)(F)F)C1 [Example 2, ((3S,4S)-1-(7-chloro-1,5-naphthyridin-4-yl)-3-methylpiperidin-4-yl)(3-(trifluoromethyl)-5,6-dihydro-[1,2,4]triazolo[4,3-a]pyrazin-7(8H)-yl)methanone] | 18 |
| C[C@@H]1CN(c2ccnc3cc(C#N)ccc23)CC[C@@H]1C(=O)N1CCn2c(nnc2C(F)(F)F)C1 [Example 24, 4-[(3S,4S)-3-methyl-4-{[3-(trifluoromethyl)-5,6-dihydro[1,2,4]tria-zolo[4,3-a]pyrazin-7(8H)-yl]carbonyl}piper-idin-1-yl]quinoline-7-carbonitrile] | 8.4 |
| C[C@@H]1CN(c2ccnc3cc(OC(F)F)ccc23)CC[C@@H]1C(=O)N1CCn2c(nnc2C(F)(F)F)C1 [Example 33, {(3S,4S)-1-[7-(difluoromethoxy)quinolin-4-yl]-3-methylpiperidin-4-yl}[3-(trifluoromethyl)-5,6-dihydro[1,2,4]triazolo[4,3-a]pyrazin-7(8H)-yl]methanone] | 8.3 |
| C[C@@H]1CN(c2c(Cl)cnc3c2CCN(c2ccccn2)C3)CC[C@@H]1C(=O)N1CCn2c(nnc2C(F)(F)F)C1 [Example 62, ((3S,4S)-1-(3-chloro-7-(pyridin-2-yl)-5,6,7,8-tetrahydro-1,7-naphthyridin-4-yl)-3-methylpiperidin-4-yl)(3-(trifluoromethyl)-5,6-dihydro-[1,2,4]triazolo[4,3-a]pyrazin-7(8H)-yl)methanone] | 0.4 |
| COc1cnc2c(N3CC[C@H](C(=O)N4CCn5c(nnc5C(F)(F)F)C4)[C@H](C)C3)c(Cl)cnc2c1 [Example 8, ((3S,4S)-1-(3-chloro-7-methoxy-1,5-naphthyridin-4-yl)-3-methylpiperidin-4-yl)(3-(trifluoromethyl)-5,6-dihydro-[1,2,4]triazolo[4,3-a]pyrazin-7(8H)-yl)methanone] | 1.2 |
| C[C@@H]1CN(c2c(Cl)c[n+]([O-])c3cc(C(F)(F)F)ccc23)CC[C@@H]1C(=O)N1CCn2c(nnc2C(F)(F)F)C1 [Example 40, {(3S,4S)-1-[3-chloro-1-oxido-7-(trifluoromethyl)quinolin-4-yl]-3-methylpiperidin-4-yl}[3-(trifluoromethyl)-5,6-dihydro[1,2,4]triazolo[4,3-a]pyrazin-7(8H)-yl]methanone] | 0.8 |
| C[C@@H]1CC(c2c(Cl)cnc3cc(C(F)F)ccc23)CCN1C(=O)N1CCn2c(nnc2C(F)(F)F)C1 (stereo partly drawn) [Example 57, ((2R)-4-(3-chloro-7-(difluoromethyl)quinolin-4-yl)-2-methylpiperidin-1-yl)(3-(trifluoromethyl)-5,6-dihydro-[1,2,4]triazolo [4,3-a]pyrazin-7(8H)-yl)methanone] | 0.32 |
| CCNC(=O)c1ccc2c(N3CC[C@H](C(=O)N4CCn5c(nnc5C(F)(F)F)C4)[C@H](C)C3)c(Cl)cnc2c1 [Example 70, 3-chloro-N-ethyl-4-((3 S,4S)-3-methyl-4-(3-(trifluoromethyl)-5,6,7,8-tetrahydro-[1,2,4]triazolo[4,3-a]pyrazine-7-carbonyl)piperidin-1-yl)quinoline-7-carboxamide] | 0.7 |
| Cc1cc(N2CC[C@H](C(=O)N3CCn4c(nnc4C(F)(F)F)C3)[C@H](C)C2)c2ccc(F)c(F)c2n1 [Example 18, 7,8-difluoro-2-methyl-4-[(3S,4S)-3-methyl-4-{[3-(trifluoromethyl)-5,6-dihydro[1,2,4]tria-zolo[4,3-a]pyrazin-7(8H)-yl]carbonyl}piper-idin-1-yl]quinolinium trifluoroacetate] | 385 |
| C[C@@H]1CN(c2c(Cl)cnc3cc([C@@H](C)O)ccc23)CC[C@@H]1C(=O)N1CCn2c(nnc2C(F)(F)F)C1 (single isomer, unassigned) [Example 44b] | 1.2 |
| C[C@@H]1CN(c2c(F)cnc3cc(C(F)F)ccc23)CC[C@@H]1C(=O)N1CCn2c(nnc2C(F)(F)F)C1 [Example 56, ((3S,4S)-1-(7-(difluoromethyl)-3-fluoroquinolin-4-yl)-3-methylpiperidin-4-yl)(3-(trifluoromethyl)-5,6-dihydro-[1,2,4]triazolo[4,3-a]pyrazin-7(8H)-yl)methanone] | 0.46 |
| CCOC(=O)c1cnc2ccc(F)cc2c1N1CC[C@H](C(=O)N2CCn3c(nnc3C(F)(F)F)C2)[C@H](C)C1 [Example 1, ethyl 6-fluoro-4-[(3S,4S)-3-methyl-4-{[3-(trifluoromethyl)-5,6-dihydro[1,2,4]triazolo[4,3-a]pyrazin-7(8H)-yl]carbonyl}piperidin-1-yl]quinoline-3-carboxylate] | 3680 |
| C[C@H](O)c1ccc2c(N3CC[C@H](C(=O)N4CCn5c(nnc5C(F)(F)F)C4)[C@H](C)C3)c(Cl)cnc2c1 (single isomer, unassigned) [Example 44a] | 0.34 |

Now from value to molecule:

| IC50 [nM] | SMILES |
| --- | --- |
| 0.46 | C[C@@H]1CN(c2c(Cl)cnc3cc(C(C)(F)F)ccc23)CC[C@@H]1C(=O)N1CCn2c(nnc2C(F)(F)F)C1 [Example 49, {(3S,4S)-1-[3-chloro-7-(1,1-difluoroethyl)quinolin-4-yl]-3-methylpiperidin-4-yl}[3-(trifluoromethyl)-5,6-dihydro[1,2,4]triazolo[4,3-a]pyrazin-7(8H)-yl]methanone] |
| 245 | Cc1cc(N2CC[C@H](C(=O)N3CCn4c(nnc4C(F)(F)F)C3)[C@H](C)C2)c2cc(F)ccc2n1 [Example 15, [(3S,4S)-1-(6-fluoro-2-methylquinolin-4-yl)-3-methylpiperidin-4-yl][3-(trifluoromethyl)-5,6-dihydro[1,2,4]tria-zolo[4,3-a]pyrazin-7(8H)-yl]methanone] |
| 1.75 | C[C@@H]1CN(c2c(Cl)cnc3c2CCN(C(=O)C2CC2)C3)CC[C@@H]1C(=O)N1CCn2c(nnc2C(F)(F)F)C1 [Example 65, (3-chloro-4-((3S,4S)-3-methyl-4-(3-(trifluoromethyl)-5,6,7,8-tetrahydro-[1,2,4]triazolo[4,3-a]pyrazine-7-carbonyl)piperidin-1-yl)-5,6-dihydro-1,7-naphthyridin-7(8H)-yl)(cyclopropyl)methanone] |
| 0.35 | C[C@@H]1CN(c2c(Cl)cnc3cc(OC(F)(F)F)ccc23)CC[C@@H]1C(=O)N1CCn2c(nnc2C(F)(F)F)C1 [Example 36, {(3S,4S)-1-[3-chloro-7-(trifluoromethoxy)quinolin-4-yl]-3-methylpiperidin-4-yl}[3-(trifluoromethyl)-5,6-dihydro[1,2,4]triazolo[4,3-a]pyrazin-7(8H)-yl]methanone] |
| 0.7 | C[C@@H]1CN(c2c(C(F)F)cnc3c(F)c(Cl)ccc23)CC[C@@H]1C(=O)N1CCn2c(nnc2C(F)(F)F)C1 [Example 7, ((3S,4S)-1-(7-chloro-3-(difluoromethyl)-8-fluoroquinolin-4-yl)-3-methylpiperidin-4-yl)(3-(trifluoromethyl)-5,6-dihydro-[1,2,4]triazolo[4,3-a]pyrazin-7(8H)-yl)methanone] |
| 107 | Cc1cc(N2CC[C@H](C(=O)N3CCn4c(nnc4C(F)(F)F)C3)[C@H](C)C2)c2ccc(Cl)cc2n1 [Example 19, 7-chloro-2-methyl-4-[(3S,4S)-3-methyl-4-{[3-(trifluoromethyl)-5,6-dihydro[1,2,4]tria-zolo[4,3-a]pyrazin-7(8H)-yl]carbonyl}piper-idin-1-yl]quinolinium trifluoroacetate] |
| 305 | C[C@@H]1CN(c2ccnc3cc(S(C)(=O)=O)ccc23)CC[C@@H]1C(=O)N1CCn2c(nnc2C(F)(F)F)C1 [Example 71, ((3 S,4S)-3-methyl-1-(7-(methylsulfonyl)quinolin-4-yl)piperidin-4-yl)(3-(trifluoromethyl)-5,6-dihydro-[1,2,4]triazolo[4,3-a]pyrazin-7(8H)-yl)methanone] |
| 1180 | C[C@H]1CN(c2ccnc3ccc(Cl)cc23)CC[C@H]1C(=O)N1CCn2c(nnc2C(F)(F)F)C1 (single isomer, unassigned) [Example 11b] |
| 0.7 | C[C@@H]1CN(c2ccnc3cc(-c4ccncc4)ccc23)CC[C@@H]1C(=O)N1CCn2c(nnc2C(F)(F)F)C1 [Example 79, ((3S,4S)-3-methyl-1-(7-(pyridin-4-yl)quinolin-4-yl)piperidin-4-yl)(3-(trifluoromethyl)-5,6-dihydro-[1,2,4]triazolo[4,3-a]pyrazin-7(8H)-yl)methanone] |
